Several values for one entry are separate records, joined by “and”; a condition that tells them apart may be missing. Identical values can stand only once. Like-named read-outs stand apart in the source and are kept apart here.
What was measured:
MDAMB231 cells = experiment: crystal violet (CV) proliferation assay, MDAMB231; assay type: cell-based; details: Homo sapiens, MDA-MB-231, MDAMB231 (PKCβ1^high, Rb^positive) 2000 cells
Description: (§1) Cell proliferation rates were determined using crystal violet assays. One thousand cells per well were plated in 96 well tissue culture plates and treated the following day with a bifunctional compound or control for 7 days in replicates of 8. Cells were fixed with 25% glutaraldehyde for 10 minutes with shaking, washed 5 times with distilled water, stained with a 1% crystal violet solution (solubilized in 25% methanol) for 10 minutes, washed again 5 times and allowed to dry. De-staining was performed using […] sodium citrate in 50% ethanol followed by quantification using a 96 well spectrophotometer set at an absorbance of 550 nm.

BT549 cells = experiment: crystal violet (CV) proliferation assay, BT549; assay type: cell-based; details: Homo sapiens, BT-549, BT549 (PKCβ1^high, Rb^regative) 2000 cells
Description: as §1

MDAMB436 cells = experiment: crystal violet (CV) proliferation assay, MDAMB436; assay type: cell-based; details: Homo sapiens, MDA-MB-436, MDAMB436 (PKCβ1^low, Rb^negative) 2000 cells
Description: as §1

[1] = system: Rb-proficient MDAMB231 and Rb-deficient BT549 and MDAMB436 cells; experiment: crystal violet (CV) proliferation assay, TNBC cells (text statements covering several lines); assay type: cell-based; details: MDAMB231 and BT549 cells (FIG. 4A and TABLE 1)
Description: as §1

KURAMOCHI cells = experiment: crystal violet (CV) proliferation assay, KURAMOCHI; assay type: cell-based; details: KURAMOSHI (PKCβ1^low) 1000 cells/well; read-out: Approximate IC50
Description: as §1
Based on the potent anti-proliferative activity of ENDX-PROTACs TC-Pr-006, TC-Pr-007, TC-Pr -008, and TC-Pr -009 in TNBC cells, the efficacy of these compounds for inhibiting the growth of ovarian cancer cells was tested. This analysis utilized KURAMOCHI cells, which represent the high-grade serous subtype (the most malignant form that accounts for 70% of all ovarian cancers and associates with poor clinical outcome) and MDAH-2774 cells, which represent endometrioid ovarian cancer and accounts for 20% of all ovarian cancer. PKCβ1 was confirmed to be expressed in both ovarian cancer cell line models, with MDAH-2774 cells expressing higher amounts of PKCβ1 compared to KURAMOCHI cells (FIG. 5A). […]

[2] = pharmacokinetics in female CD1 mice, plasma by UPLC-MS/MS; assay type: in vivo; details: for Tmax: read-out: time of peak plasma concentration (converted); for half-life: read-out: terminal half-life (converted); for concentration at 0.5 h: 30 minutes; for Concentration ENDX PROTAC 9: listed as ENDX PROTAC 9, 1 mg/kg
Description: ENDX PROTAC 7 and PROTAC 9 pharmacokinetics were characterized in female CD1 mice. Blood samples were collected from mice anesthetized under isoflurane via retro-orbital eye bleed into tubes containing EDTA and immediately chilled on ice. NaF was added to the EDTA collection tubes to help stabilize the drug in whole blood for the second IV and IP studies with ENDX PROTAC 9, and for the IV and oral studies with PROTAC 7. Plasma and red blood cells were separated immediately by centrifugation in a refrigerated centrifuge at 4°C. The plasma was transferred to a separate tube and immediately frozen at -20°C.
For IV dosing, ENDX PROTAC 9 was dissolved in 10% DMSO, 10% PEG 400, and 80% normal saline for a final concentration of 0.2 mg/mL ENDX PROTAC 9 for the 1 mg/kg IV doses. ENDX PROAC 7 was dissolved in 15% DMSO, 9.44% PEG400, and 55% normal saline for a final concentration of 0.19 mg/mL for the 1 mg/kg IV doses. Blood samples (3 mice per time-point) were collected 5 minutes, 15 minutes, 0.5 hour, 1 hour, 2 hours, 4 hours, 8 hours, and 24 hours after administration of the ENDX PROTAC. […] For oral dosing, ENDX PROTAC 9 (10 mg/kg) and ENDX PROTAC 7 (10 mg/kg) were suspended in 1 mM ascorbic acid:PEG400, 1:1 v/v for a final concentration of 1.0 mg/mL ENDX PROTAC. Blood samples (three mice per time-point) were collected 15 minutes, 0.5 hour, 1 hour, 2 hours, 4 hours, 6 hours, 8 hours, and 24 hours after administering the ENDX PROTAC. For I.P. dosing, ENDX PROTAC 9 (4 mg/kg) was prepared in 1 mM ascorbic acid:PEG400, 1:1 v/v for a final concentration of 0.4 mg/mL ENDX PROTAC 9. Blood samples (three mice per time-point) were collected 15 minutes, 0.5 hour, 1 hour, 2 hours, 4 hours, 6 hours, 8 hours, and 24 hours after administration. Plasma concentrations of ENDX PROTAC 7 and 9 were measured using UPLC-MS/MS.

[3] = mouse, plasma, iv, 1 mg/kg, I.V. 1 mg/kg, first study without NaF
[4] = mouse, plasma, iv, 1 mg/kg, I.V. 1 mg/kg, second study with NaF

CCC(=C(c1ccc(O)cc1)c1ccc(OCCN(C)C(=O)COCCOCCNC(=O)Cc2ccc3c(c2)CN(C2CCC(=O)NC2=O)C3=O)cc1)c1ccccc1 (stereo not shown) [TC-Pr-009, 2-[2-(2-2-[2-(2,6-dioxopiperidin-3-yl)-1-oxo-2,3-dihydro-1H-isoindol-5-yl]acetamidoethoxy)ethoxy]-N-(2-4-[1-(4-hydroxyphenyl)-2-phenylbut-1-en-1-yl]phenoxyethyl)-N-methylacetamide]
IC50 (MDAMB231 cells): 131 nM | IC50 (BT549 cells): 67 nM | IC50 (MDAMB436 cells): 64 nM | apoptosis [1]: induced apoptosis | IC50 (KURAMOCHI cells): 1 to 10 µM | stability in whole blood ([2]; inferred from IV studies with and without NaF): unstable in whole blood | Cmax ([2]; mouse, plasma, ip, 4 mg/kg, I.P. 4 mg/kg, read-out: peak plasma concentration): 135 ng/mL | bioavailability ([2]; mouse, plasma, ip, I.P. 4 mg/kg, read-out: bioavailability of the I.P. dose): 225% | Tmax ([2]; mouse, plasma, ip, I.P. 4 mg/kg): 30 min | clearance [2, 3]: 730 mL/min/kg | half-life [2, 3]: 60 min | Cmax ([2]; mouse, plasma, iv, 1 mg/kg, I.V. 1 mg/kg, samples collected without added NaF, read-out: peak plasma concentration): 47.2 ng/mL | clearance [2, 4]: 478 mL/min/kg | half-life [2, 4]: 39.6 min | Cmax ([2]; mouse, plasma, iv, 1 mg/kg, I.V. 1 mg/kg, second study, NaF added to EDTA tubes, read-out: peak plasma concentration): 70.9 ng/mL | concentration at 0.5 h ([2]; mouse, plasma, iv, 1 mg/kg, plasma, IV 1 mg/kg, EDTA without NaF, individual mice, read-out: Concentration ENDX PROTAC 9): 1.81 ng/mL | concentration at 0.5 h ([2]; mouse, plasma, iv, 1 mg/kg, plasma, IV 1 mg/kg, all data (both IV studies), read-out: Concentration ENDX PROTAC 9): 2.83 ng/mL | Tmax ([2]; mouse, plasma, iv, I.V. 1 mg/kg, samples collected without added NaF): 5 min | Cmax ([2]; mouse, plasma, po, 10 mg/kg, oral 10 mg/kg, read-out: average peak plasma concentration): 11.1 ng/mL | concentration at 0.5 h ([2]; mouse, plasma, po, 10 mg/kg, plasma, PO 10 mg/kg, individual mice, read-out: Concentration ENDX PROTAC 9): 0.74 ng/mL | concentration at 8 h ([2]; mouse, plasma, po, 10 mg/kg, plasma, PO 10 mg/kg, 480 minutes, individual mice, read-out: Concentration ENDX PROTAC 9): 0.08 ng/mL | concentration at 0.25 h ([2]; mouse, plasma, po, 10 mg/kg, plasma, TABLE 7, titled PO pk (10 mg/kg), 15 minutes, individual mice, read-out: Concentration ENDX PROTAC 9): 108 ng/mL | concentration at 0.5 h ([2]; mouse, plasma, po, 10 mg/kg, plasma, TABLE 7, titled PO pk (10 mg/kg), individual mice, read-out: Concentration ENDX PROTAC 9): 166 ng/mL | concentration at 1 h ([2]; mouse, plasma, po, 10 mg/kg, plasma, TABLE 7, titled PO pk (10 mg/kg), 60 minutes, individual mice, read-out: Concentration ENDX PROTAC 9): 131 ng/mL | bioavailability ([2]; mouse, plasma, oral 10 mg/kg vs IV 1 mg/kg, read-out: Oral bioavailability): 8.8% | Tmax ([2]; mouse, plasma, oral 10 mg/kg): 60 min | Concentration ENDX PROTAC 9 ([2]; plasma, IV 1 mg/kg, EDTA without NaF, 5 minutes, individual mice): 49.449 ng/mL and 47.9659 ng/mL and 12.7855 ng/mL | Concentration ENDX PROTAC 9 ([2]; plasma, IV 1 mg/kg, EDTA without NaF, 15 minutes, individual mice): 44.1034 ng/mL and 9.4992 ng/mL and 7.241 ng/mL
